For orientation: pIC50 means −log10 of the IC50, conventionally taken in molar units. By inhibition is commonly meant the drop in the measured response relative to a control, in per cent.

pIC50: −log10 of the molar value. Activity calls are given as the source filed them. The rule behind the calls is not given here. Some results are limits rather than exact numbers.

Assay [1] relates to SARS-CoV-2. The experiment in a line: Antiviral activity against SARS-CoV-2 variant Omicron BA.5 infected in African green monkey Vero E6 cells assessed as reduction in virus titers of progeny virus in supernatant measured after 72 hrs by CPE assay. Type of assay: functional, organism-based. The conditions noted are these: Severe acute respiratory syndrome coronavirus 2, Omicron BA.5, Vero C1008, 72 h.

In assay [2] the test system is SARS-CoV-2. The experiment in a line: Antiviral activity against SARS-CoV-2 variant Omicron BA.5 infected African green monkey Vero E6 cells assessed as reduction in virus-induced cytopathic effect at 37.5 uM preincubated with virus for 1 hr followed by infection with cells and measured after 72 hrs by microscopic analysis. Type of assay: functional, organism-based. The conditions noted are these: Severe acute respiratory syndrome coronavirus 2, time 73.0 hrs.

In assay [3] the test system is SARS-CoV-2. Description: Antiviral activity against SARS-CoV-2 variant Omicron BA.2 infected in African green monkey Vero E6 cells assessed as reduction in viral replication at 37.5 uM measured at 72 hrs post-infection by qRT-PCR analysis. Type of assay: functional, organism-based. The conditions noted are these: Severe acute respiratory syndrome coronavirus 2.
Assay [4] concerns SARS-CoV-2. Description: Antiviral activity against SARS-CoV-2 variant Omicron BA.3 infected in African green monkey Vero E6 cells assessed as reduction in virus titers of progeny virus in supernatant measured after 72 hrs by CPE assay. Type of assay: functional, organism-based. The settings on record: Severe acute respiratory syndrome coronavirus 2, Omicron BA.3, Vero C1008, 72 h.

For assay [5], the system named is SARS-CoV-2. Description: Antiviral activity against SARS-CoV-2 variant Omicron BA.1 infected in African green monkey Vero E6 cells assessed as reduction in virus titers of progeny virus in supernatant measured after 72 hrs by CPE assay. Type of assay: functional, organism-based. The settings on record: Severe acute respiratory syndrome coronavirus 2, Omicron BA.1, Vero C1008, 72 h.

The subject of assay [6] is SARS-CoV-2. Description: Antiviral activity against SARS-CoV-2 variant Omicron BA.5 infected in African green monkey Vero E6 cells assessed as reduction in viral replication at 37.5 uM measured at 72 hrs post-infection by qRT-PCR analysis. The settings on record: Severe acute respiratory syndrome coronavirus 2. Type of assay: functional, organism-based. On the technique in general: Quantitative PCR measures a nucleic acid by following its amplification.

Assay [7] concerns SARS-CoV-2. Description: Antiviral activity against SARS-CoV-2 variant Omicron BA.5 infected in African green monkey Vero E6 cells assessed as inhibition of virus titers of progeny virus in supernatant at 37.5 uM measured after 72 hrs by CPE assay relative to control. The settings on record: Severe acute respiratory syndrome coronavirus 2, Omicron BA.5, Vero C1008. Type of assay: functional.

In assay [8] the test system is SARS-CoV-2. The experiment in a line: Antiviral activity against SARS-CoV-2 variant Delta infected in African green monkey Vero E6 cells assessed as reduction in viral replication at 37.5 uM measured at 72 hrs post-infection by qRT-PCR analysis. Type of assay: functional, organism-based. The conditions noted are these: Severe acute respiratory syndrome coronavirus 2.

In assay [9] the test system is SARS-CoV-2. Description: Antiviral activity against SARS-CoV-2 variant Omicron BA.2 infected in African green monkey Vero E6 cells assessed as reduction in virus-induced cytopathic effect at 37.5 uM preincubated with virus for 1 hr followed by infection with cells and measured after 72 hrs by microscopic analysis. Type of assay: functional, organism-based. The settings on record: Severe acute respiratory syndrome coronavirus 2, time 73.0 hrs.

Assay [10] deals with SARS-CoV-2. Description: Antiviral activity against SARS-CoV-2 variant Omicron BA.4 infected African green monkey Vero E6 cells assessed as reduction in virus-induced cytopathic effect at 37.5 uM preincubated with virus for 1 hr followed by infection with cells and measured after 72 hrs by microscopic analysis. Type of assay: functional, organism-based. The settings on record: Severe acute respiratory syndrome coronavirus 2, time 73.0 hrs. A general note: Cytopathic effects are the visible damage that an infection or toxin causes in cultured cells.

The subject of assay [11] is SARS-CoV-2. The experiment in a line: Antiviral activity against SARS-CoV-2 variant Omicron BA.1 infected in African green monkey Vero E6 cells assessed as inhibition of virus titers of progeny virus in supernatant at 37.5 uM measured after 72 hrs by CPE assay relative to control. The settings on record: Severe acute respiratory syndrome coronavirus 2, Omicron BA.1, Vero C1008. Type of assay: functional.

For assay [12], the system named is SARS-CoV-2. The experiment in a line: Antiviral activity against SARS-CoV-2 variant Delta infected in African green monkey Vero E6 cells assessed as inhibition of virus titers of progeny virus in supernatant at 37.5 uM measured after 72 hrs by CPE assay relative to control. Type of assay: functional. The settings on record: Severe acute respiratory syndrome coronavirus 2, Delta, Vero C1008.

For assay [13], the system named is SARS-CoV-2. The experiment in a line: Antiviral activity against SARS-CoV-2 variant Omicron BA.4 infected in African green monkey Vero E6 cells assessed as inhibition of virus titers of progeny virus in supernatant at 37.5 uM measured after 72 hrs by CPE assay relative to control. The conditions noted are these: Severe acute respiratory syndrome coronavirus 2, Omicron BA.4, Vero C1008. Type of assay: functional.

Assay [14] has as its system SARS-CoV-2. Description: Antiviral activity against SARS-CoV-2 variant Omicron BA.4 infected in African green monkey Vero E6 cells assessed as reduction in virus titers of progeny virus in supernatant measured after 72 hrs by CPE assay. Type of assay: functional, organism-based. The settings on record: Severe acute respiratory syndrome coronavirus 2, Omicron BA.4, Vero C1008, 72 h.

The subject of assay [15] is SARS-CoV-2. Description: Antiviral activity against SARS-CoV-2 variant Omicron BA.1 infected in African green monkey Vero E6 cells assessed as reduction in viral replication at 37.5 uM measured at 72 hrs post-infection by qRT-PCR analysis. Type of assay: functional, organism-based. The settings on record: Severe acute respiratory syndrome coronavirus 2.
In assay [16] the test system is SARS-CoV-2. Description: Antiviral activity against SARS-CoV-2 variant Omicron BA.4 infected in African green monkey Vero E6 cells assessed as reduction in viral replication at 37.5 uM measured at 72 hrs post-infection by qRT-PCR analysis. Type of assay: functional, organism-based. The conditions noted are these: Severe acute respiratory syndrome coronavirus 2.
Assay [17] concerns SARS-CoV-2. The experiment in a line: Antiviral activity against SARS-CoV-2 variant Omicron BA.3 infected in African green monkey Vero E6 cells assessed as inhibition of virus titers of progeny virus in supernatant at 37.5 uM measured after 72 hrs by CPE assay relative to control. Type of assay: functional. The settings on record: Severe acute respiratory syndrome coronavirus 2, Omicron BA.3, Vero C1008.

Assay [18] deals with SARS-CoV-2. The experiment in a line: Antiviral activity against SARS-CoV-2 variant Omicron BA.2 infected in African green monkey Vero E6 cells assessed as inhibition of virus titers of progeny virus in supernatant at 37.5 uM measured after 72 hrs by CPE assay relative to control. Type of assay: functional. The settings on record: Severe acute respiratory syndrome coronavirus 2, Omicron BA.2, Vero C1008.

Assay [19] deals with SARS-CoV-2. Description: Antiviral activity against SARS-CoV-2 variant Omicron BA.2 infected in African green monkey Vero E6 cells assessed as reduction in virus titers of progeny virus in supernatant measured after 72 hrs by CPE assay. Type of assay: functional, organism-based. The settings on record: Severe acute respiratory syndrome coronavirus 2, Omicron BA.2, Vero C1008, 72 h.

In assay [20] the test system is SARS-CoV-2. Description: Antiviral activity against SARS-CoV-2 variant Omicron BA.1 infected in African green monkey Vero E6 cells assessed as reduction in virus-induced cytopathic effect at 37.5 uM preincubated with virus for 1 hr followed by infection with cells and measured after 72 hrs by microscopic analysis. Type of assay: functional, organism-based. The settings on record: Severe acute respiratory syndrome coronavirus 2, time 73.0 hrs.

Assay [21] deals with SARS-CoV-2. The experiment in a line: Antiviral activity against SARS-CoV-2 variant Omicron BA.3 infected African green monkey Vero E6 cells assessed as reduction in virus-induced cytopathic effect at 37.5 uM preincubated with virus for 1 hr followed by infection with cells and measured after 72 hrs by microscopic analysis. The settings on record: Severe acute respiratory syndrome coronavirus 2, time 73.0 hrs. Type of assay: functional, organism-based.

For assay [22], the system named is SARS-CoV-2. The experiment in a line: Antiviral activity against SARS-CoV-2 variant Delta infected in African green monkey Vero E6 cells assessed as reduction in virus titers of progeny virus in supernatant measured after 72 hrs by CPE assay. Type of assay: functional, organism-based. The settings on record: Severe acute respiratory syndrome coronavirus 2, Delta, Vero C1008, 72 h.

The subject of assay [23] is SARS-CoV-2. Description: Antiviral activity against SARS-CoV-2 variant Omicron BA.3 infected in African green monkey Vero E6 cells assessed as reduction in viral replication at 37.5 uM measured at 72 hrs post-infection by qRT-PCR analysis. The settings on record: Severe acute respiratory syndrome coronavirus 2. Type of assay: functional, organism-based.
The test system of assay [24] is SARS-CoV-2. The experiment in a line: Antiviral activity against SARS-CoV-2 variant Delta infected in African green monkey Vero E6 cells assessed as reduction in virus-induced cytopathic effect at 37.5 uM preincubated with virus for 1 hr followed by infection with cells and measured after 72 hrs by microscopic analysis. Type of assay: functional, organism-based. The conditions noted are these: Severe acute respiratory syndrome coronavirus 2, time 73.0 hrs.

`C=C(C)[C@@H]1CCC(C)=C[C@H]1c1c(O)cc(CCCCC)c(C(=O)OC)c1O`: the pIC50 in the assay with SARS-CoV-2 [1] is 4.73; with SARS-CoV-2 [4], 4.73; with SARS-CoV-2 [5], 4.81; in the assay on SARS-CoV-2 [14], 4.72; with SARS-CoV-2 [19], 4.78; in the assay on SARS-CoV-2 [22], 4.80. Also, the outcome in the assay with SARS-CoV-2 [2], in the assay on SARS-CoV-2 [3], in the assay on SARS-CoV-2 [6], in the assay with SARS-CoV-2 [8], in the assay with SARS-CoV-2 [9] and with SARS-CoV-2 [10] was Active. Moreover, the result in the assay with SARS-CoV-2 [15], in the assay on SARS-CoV-2 [16], in the assay with SARS-CoV-2 [20], in the assay with SARS-CoV-2 [21], in the assay with SARS-CoV-2 [23] and in the assay with SARS-CoV-2 [24] was Active. The inhibition at 37.5 µM in the assay with SARS-CoV-2 [7], with SARS-CoV-2 [11], in the assay with SARS-CoV-2 [12], with SARS-CoV-2 [13], with SARS-CoV-2 [17] and with SARS-CoV-2 [18] was greater than 90% each time.

The values above are taken from ChEMBL document CHEMBL5321262, “Antiviral Activity of Cannabidiolic Acid and Its Methyl Ester against SARS-CoV-2” (J Nat Prod, 2023).
